{"source": "patent US20160074409A1", "about": "“Treatment of Skeletal-Related Disorders” (priority 2013, published 2016)", "tested_on": "MDA-MB-231 breast carcinoma cells", "assay": "Bone density in bone metastasis model (femoral and tibial X-ray densitometry)", "assay_type": "in vivo, Nude (rnu/rnu) female rats", "settings": "metastatic bone cancer model, MDA-MB-231 cells injected into tibia; Group G5: 90 mg/kg BID PO, N=6; 6 weeks; FIG. 1", "description": "Nude (rnu/rnu) female rats were obtained from Charles River (Wilmington, Mass.). The rats were pair-housed in polycarbonate micro-isolator cages lined with autoclaved bedding. Autoclaved reverse osmosis (RO) water and autoclaved standard rat chow were provided ad libitum. Body weights were recorded weekly throughout the course of the studies. Animals were maintained for 6 weeks and euthanized by carbon dioxide inhalation at the end of the experiment. The animals were randomized to study groups by body weight as follows: G1: vehicle BID PO (N=6), G2: 0.04 mg/kg zoledronate QWK IV (N=6), G5: 90 mg/kg Compound of Formula IV BID PO (N=6), and G6: No implantation (N=3).\nMDA-MB-231 breast carcinoma cells were propagated by standard tissue culture methods in RPMI media containing 10% fetal bovine serum. Exponentially growing cells were trypsinized and resuspended in phosphate-buffered saline at a concentration of 2.5×10^7 cells/mi. Rats were maintained under isoflurane anesthesia during the tumor injection procedure. […]\nRadiographs were taken with rats under general anaesthesia. […] Radiographs were scanned and analysed. […]\nFemoral and tibial X-ray densitometry was performed. In brief, bones were X-rayed, the film was scanned and the electronic image then analysed by a real-colour image analysis system. Pixel density was then determined and used as a measure of disease progression.", "data": [{"molecule": "CC#CC(=O)N1CCCC1c1nc(-c2ccc(C(=O)Nc3ccccn3)cc2)c2c(N)ncnn12", "note": "(stereo not shown) [Compound of Formula IV]", "values": [{"measurement": "bone density (femoral and tibial X-ray densitometry, pixel density)", "result": "inhibition of the decrease in bone density"}]}]}
